According to article PMC6611044, “Pharmacokinetic analysis of new synthetic antimalarial N-251” (Tropical Medicine and Health, 2019):
≈ marks a conversion by molar mass, not a printed value. Where “and” joins values, the source holds several entries; their conditions need not be identical. Equal entries are not always repeated. Entries after “also recorded” stand apart in the source; their conditions may differ. Where two headings read alike, the source gives them in different places.

Legend:
P. berghei = system: P. berghei; set-up: method as in PMID 11428929; conditions: 4-day suppressive test, cited from earlier work
[1] = Effects of food and parasite infection on absorption of N-251 after p.o. administration; assay type: in vivo, mice; conditions: p.o. 68 mg/kg; for F: vs AUC of 10 mg/kg i.v.
Experimental: Normal-fasted and normal-fed mice were used for the analysis. Parasite-infected mice were prepared before the analysis, and a 0.61% infection rate in P. berghei-infected mice under fasting condition was used. The single p.o. dose of N-251 was 68 mg/kg. Blood sample was collected 15, 30, and 45 min as well as 1, 1.5, 2, 3, 4, and 6 h post-dose. Data were expressed as mean with the bar indicating the SD value.

[2] = PK analysis after i.v. administration of N-251 in fasted mice; assay type: in vivo; conditions: for MRTiv / Vd1 / Vd2 / AUC / k el / clearance / Vd: fasted mice; for A (hybrid parameter) / B (hybrid parameter) / a (hybrid parameter) / b (hybrid parameter): two-compartment fit; for half-life / AUC / k el / clearance / Vd: male, ICR, mouse, plasma; for clearance: read-out: CLtotal (converted); for Vd: read-out: Vdss
Experimental: We used healthy 5-week-old ICR male mice that were subjected to overnight fasting since the night a day before the test. To analyze N-251 after i.v. administration, doses of 25, 10, and 5 mg/kg were used for each group. The blood sample was collected at 2, 5, 15, and 30 min as well as 1, 2, 4, and 6 h post-dose, and a single blood sample was collected from a single mouse. Preparation of plasma samples of N-251 was described in the “Methods” section. Data were expressed as mean (n = 6) ± standard deviation (SD). Plasma concentration-time profiles after i.v. administration were fitted to a two-compartment model using the non-linear least-squares regression program MULTI [17]. Plasma concentration (Cp) was expressed using the following equation: Cp=A⋅EXP−α⋅t+B⋅EXP−β⋅t.
where A and B are D ⋅ (α − k21)/Vd1/(α − β) and D ⋅ (k21 − β)/Vd1/(α − β), respectively. D, Vd1, and k21 are the dose, apparent distribution volume of central compartment, and distribution rate constant from the peripheral to central compartment, respectively, and α and β represent the slopes of α and β phases of log Cp, respectively. PK parameters were calculated as follows: AUC = A/α +B/β; total body clearance, CLtotal =D/AUC; elimination rate constant, kel = (Aβ + Bα)/(A + B); apparent distribution volume of peripheral compartment, Vd2 =k12/k21·Vd1; distribution volume at steady state, Vdss = Vd1 + Vd2; and mean residence time (MRT) = (k12+ k21)/(kel·k21).

[3] = cited from earlier work
[4] = system: P. falciparum (FCR-3 strain); set-up: method as in PMID 21501696; conditions: P. falciparum FCR-3 strain in vitro, cited from earlier work
[5] = Multiple p.o. dosing plasma concentration-time profile and simulation; assay type: in vivo, mice
Experimental: N-251 was administered p.o. at a dose of 68 mg/kg every 8 h for 2 days in normal-fed mice. Blood sample was collected at 15, 30, and 45 min as well as 1, 1.5, 2, 3, 4, 6, 8, 10, 16, 18, 24, 26, 32, 34, 40, 42, 44, 46, and 48 h after administration. Data were expressed as mean (n = 6) with the bar indicating the SD value. Simulation of plasma concentration-time profile after multiple dosing was performed by utilizing the parameters obtained via fitting analysis for the plasma concentration-time curve after a single p.o. dose of N-251 based on the two-compartment model with the first-order absorption process. The equation and parameters used for the simulation were as follows: Cp=X⋅EXP−ka⋅t−tlag+Y⋅EXP−α⋅t−tlag+Z⋅EXP−β⋅t−tlag,
where ka and tlag are absorption rate constant and lag time, respectively, and X, Y, Z, α, and β are the hybrid parameters. Their values used for simulation were as follows: X = 8422 ng/mL/kg, ka = 0.845 h^−1, Y = − 8419 ng/mL/kg, α = 1.09 h^−[…], Z = 5.29 ng/mL/kg, β = 1.06 h^−1, and lag time = 0.330.

rodent malaria parasites = system: rodent malaria parasites; set-up: method as in PMID 21501696; conditions: 68 mg/kg three times a day for 3 days, cited from earlier work
Solubility = assay type: physicochemical; conditions: water
[6] = PK analysis after p.o. administration of N-251 in fasted mice; assay type: in vivo; conditions: for AUC: 0 to infinity
Experimental: To analyze the absorption kinetics of N-251, it was orally administered to fasted mice with dose of 210, 100, 68, 50, and 30 mg/kg. Blood sample was collected at 15 and 30 min as well as 1, 1.5, 2, 3, 4, and 6 h post-dose. Data were expressed as the mean (n = 6) ± SD. AUC and MRT after p.o. administration in fasting mice were calculated based on the trapezoidal rule. F was calculated with an AUC of 10 mg/kg of i.v. dose. The highest observed concentration was used as Cmax, and the time for Cmax was defined as Tmax.

[7] = Multiple p.o. dosing plasma concentration-time profile and simulation; assay type: in vivo, mice; conditions: 68 mg/kg three times a day for 3 days
[8] = ICR, mouse, plasma, po, 68 mg/kg, normal-fed mice
[9] = i.v. 5, 10 and 25 mg/kg, range over doses
[10] = fit of single p.o. dose, two-compartment model with first-order absorption
[11] = male, ICR, mouse, plasma, po, p.o. 30 mg/kg
[12] = male, ICR, mouse, plasma, po, p.o. 50 mg/kg
[13] = male, ICR, mouse, plasma, po, p.o. 68 mg/kg
[14] = male, ICR, mouse, plasma, po, p.o. 100 mg/kg
[15] = male, ICR, mouse, plasma, po, p.o. 210 mg/kg

For OCCCCCCC1COOC2(CCCCCCCCCCC2)OOC1 [N-251, 6-(1,2,6,7-tetraoxaspiro [7.11]nonadec-4-yl)hexan-1-ol], the ED50 (P. berghei; i.v.) is given as 22 mg/kg, the ED50 (P. berghei; p.o.) is given as 15 mg/kg and the AUC ([1]; ICR, mouse, plasma, po, 68 mg/kg, P. berghei-infected (0.61%) fasted mice) is given as 3270 ng·h/mL. For the same compound, the Cmax ([1]; ICR, mouse, plasma, po, 68 mg/kg, P. berghei-infected (0.61%) fasted mice, read-out: Cmax) was 1770 ± 1650 ng/mL, the Cmax ([1]; ICR, mouse, plasma, po, 68 mg/kg, normal-fasted mice (control), read-out: Cmax) was 1680 ng/mL and the AUC [1, 8] was 2280 ng·h/mL. For the same compound, the Tmax [1, 8] was 1.5 h, the Cmax ([1]; ICR, mouse, plasma, po, 68 mg/kg, normal-fed mice, read-out: Cmax) was 953 ng/mL and the “AUC in fed mice relative to fasted mice” value [1] was “about 60%”. The “Cmax in fed mice relative to normal-fasted mice” value [1] was 57%, the F ([1]; P. berghei-infected (0.61%) fasted mice) was 0.1978 and the MRTpo ([1]; normal-fed mice) was 3.01 h. The F ([1]; normal-fed mice) was 0.1379, the Cmax ([1]; normal-fed mice, 68 mg/kg) was 950 ng/mL and 952.50 ± 332.49 ng/mL and the MRTiv ([2]; i.v. 5 mg/kg) was 1.12 h. The Vd1 ([2]; i.v. 5 mg/kg) was 3.23 L/kg, the Vd2 ([2]; i.v. 5 mg/kg) was 1.62 L/kg and the “A (hybrid parameter)” value ([2]; i.v. 5 mg/kg) was 1453.6 ± 465.9 ng/mL. The “B (hybrid parameter)” value ([2]; i.v. 5 mg/kg) was 92.5 ± 182.0 ng/mL, the “a (hybrid parameter)” value ([2]; i.v. 5 mg/kg) was 1.62 ± 0.70 h⁻¹ and the “b (hybrid parameter)” value ([2]; i.v. 5 mg/kg) was 0.35 ± 0.37 h⁻¹. It also gave an MRTiv ([2]; i.v. 10 mg/kg) of 0.96 h, a Vd1 ([2]; i.v. 10 mg/kg) of 1.58 L/kg and a Vd2 ([2]; i.v. 10 mg/kg) of 2.35 L/kg. The “A (hybrid parameter)” value ([2]; i.v. 10 mg/kg) was 5922.7 ± 1731.5 ng/mL, the “B (hybrid parameter)” value ([2]; i.v. 10 mg/kg) was 410.0 ± 253.8 ng/mL and the “a (hybrid parameter)” value ([2]; i.v. 10 mg/kg) was 3.84 ± 1.23 h⁻¹. For the same compound, the “b (hybrid parameter)” value ([2]; i.v. 10 mg/kg) was 0.46 ± 0.15 h⁻¹, the MRTiv ([2]; i.v. 25 mg/kg) was 0.86 h and the Vd1 ([2]; i.v. 25 mg/kg) was 1.36 L/kg. The Vd2 ([2]; i.v. 25 mg/kg) was 1.52 L/kg, the “A (hybrid parameter)” value ([2]; i.v. 25 mg/kg) was 17,738.1 ± 1700.0 ng/mL and the “B (hybrid parameter)” value ([2]; i.v. 25 mg/kg) was 690.4 ± 341.6 ng/mL. The “a (hybrid parameter)” value ([2]; i.v. 25 mg/kg) was 3.12 ± 0.55 h⁻¹, the “b (hybrid parameter)” value ([2]; i.v. 25 mg/kg) was 0.39 ± 0.10 h⁻¹ and the T1/2α [2, 9] was 0.18 to 0.429 h. For the same compound, the distribution volume [2, 9] was 2.88 to 4.85 L/kg, the half-life ([2]; other: i.v. and p.o. administration, i.v. and p.o. administration, read-out: half-life) was < 2 h and the AUC ([2]; iv, i.v. 5 mg/kg) was 1160 ng·h/mL. The k el ([2]; iv, i.v. 5 mg/kg) was 0.000369 s⁻¹, the clearance ([2]; iv, i.v. 5 mg/kg) was 71.7 mL/min/kg and the Vd ([2]; iv, i.v. 5 mg/kg) was 4.85 L/kg. The AUC ([2]; iv, i.v. 10 mg/kg) was 2430 ng·h/mL, the k el ([2]; iv, i.v. 10 mg/kg) was 0.000722 s⁻¹ and the clearance ([2]; iv, i.v. 10 mg/kg) was 68.5 mL/min/kg. The Vd ([2]; iv, i.v. 10 mg/kg) was 3.93 L/kg, the AUC ([2]; iv, i.v. 25 mg/kg) was 7460 ng·h/mL and the k el ([2]; iv, i.v. 25 mg/kg) was 0.000686 s⁻¹. For the same compound, the clearance ([2]; iv, i.v. 25 mg/kg) was 55.8 mL/min/kg, the Vd ([2]; iv, i.v. 25 mg/kg) was 2.88 L/kg and the half-life ([2]; iv, i.v. 5, 10 and 25 mg/kg, range over doses, read-out: T1/2β) was 1.5 to 1.99 h. For the same compound, the “solubility in Cremophor EL” value ([3]; Cremophor EL) was 65 mg/mL (≈ 174 mM), the “solubility in olive oil” value ([3]; olive oil) was 92 mg/mL (≈ 247 mM) and the EC50 ([4]; equivalent of 8.6 ng/mL, read-out: EC50) was 23 nM. For the same compound, the EC50 [4] was 8.6 ng/mL, the “minimal plasma concentration (Cmin)” value ([5]; 68 mg/kg p.o. every 8 h for 2 days, normal-fed mice, except 8 h after the first administration) was “greater than 10 ng/mL” and the “accumulation on multiple oral dosing” value ([5]; 68 mg/kg p.o. three times per day for 2 days, normal-fed mice) was “did not accumulate; also recorded: does not accumulate”. For the same compound, the “X (hybrid parameter used for simulation)” value [5, 10] was 8422 ng/mL/kg, the “Z (hybrid parameter used for simulation)” value [5, 10] was 5.29 ng/mL/kg and the “ka (absorption rate constant)” value [5, 10] was 0.845 h⁻¹. The lag time [5, 10] was 0.330, the “α (hybrid parameter used for simulation)” value [5, 10] was 1.09 ng/h/mL/kg and the “β (hybrid parameter used for simulation)” value [5, 10] was 1.06 h⁻¹. For the same compound, the “period without parasites after the last administration” value (rodent malaria parasites; infected mice) was 2 months, the “time after treatment at which parasites were not observed in the bloodstream” value (rodent malaria parasites; infected mice) was 36 h and the “time after which malaria parasites decreased” value (rodent malaria parasites; infected mice) was 16 h. For the same compound, the “cure of infected mice” value (rodent malaria parasites) was “completely cured without recrudescence”, the solubility (Solubility) was 0.007 mg/mL (≈ 0.0188 mM) and the Tmax ([6]; ICR, mouse, plasma, po, every group of dose (30-210 mg/kg)) was 2 h. The bioavailability ([6]; ICR, mouse, plasma, po, p.o. administration, over doses 30-210 mg/kg, read-out: bioavailability (F)) was ~23%, the Cmax [6, 11] was 634 ± 129 ng/mL and the Tmax [6, 11] was 2 h. It also gave an AUC [6, 11] of 1570 ng·h/mL, a Cmax [6, 12] of 1360 ± 799 ng/mL and a Tmax [6, 12] of 2 h. The AUC [6, 12] was 2570 ng·h/mL, the Cmax [6, 13] was 1680 ± 811 ng/mL and the Tmax [6, 13] was 2 h. It also gave an AUC [6, 13] of 3770 ng·h/mL, a Cmax [6, 14] of 2460 ± 802 ng/mL and a Tmax [6, 14] of 2 h. For the same compound, the AUC [6, 14] was 5890 ng·h/mL, the Cmax [6, 15] was 4890 ± 1190 ng/mL and the Tmax [6, 15] was 2 h. For the same compound, the AUC [6, 15] was 15200 ng·h/mL, the MRTpo ([6]; p.o. 30 mg/kg) was 2.45 h and the F ([6]; p.o. 30 mg/kg, vs AUC of 10 mg/kg i.v.) was 0.2156. The MRTpo ([6]; p.o. 50 mg/kg) was 2.49 h, the F ([6]; p.o. 50 mg/kg, vs AUC of 10 mg/kg i.v.) was 0.2110 and the MRTpo ([6]; p.o. 68 mg/kg) was 2.46 h. It also gave an F ([6]; p.o. 68 mg/kg, vs AUC of 10 mg/kg i.v.) of 0.2277, an MRTpo ([6]; p.o. 100 mg/kg) of 2.46 h and an F ([6]; p.o. 100 mg/kg, vs AUC of 10 mg/kg i.v.) of 0.2419. For the same compound, the MRTpo ([6]; p.o. 210 mg/kg) was 2.74 h, the F ([6]; p.o. 210 mg/kg, vs AUC of 10 mg/kg i.v.) was 0.2982 and the F ([6]; p.o. between 30 and 100 mg/kg) was “approximately 0.22”. For the same compound, the “plasma concentration maintained for 72 h” value [7] was “more than 10 ng/mL”.
